Results published in patent US20050282818A1, “Ubiquitin ligase inhibitors” (Rigel Pharmaceuticals, Inc., priority 2004, published 2005).
Read-outs that look alike come from different tables or passages of the source.

Columns and labels:
TRAF6/Uev1A/Ubc13 = target: T1, TRAF6/Uev1A/Ubc13 (Homo sapiens, UniProt Q9Y4K3); assay: TRAF6/Uev1A/Ubc13 plate-based ubiquitin ligase assay; type: biochemical
T1 sequence (Q9Y4K3 1-522): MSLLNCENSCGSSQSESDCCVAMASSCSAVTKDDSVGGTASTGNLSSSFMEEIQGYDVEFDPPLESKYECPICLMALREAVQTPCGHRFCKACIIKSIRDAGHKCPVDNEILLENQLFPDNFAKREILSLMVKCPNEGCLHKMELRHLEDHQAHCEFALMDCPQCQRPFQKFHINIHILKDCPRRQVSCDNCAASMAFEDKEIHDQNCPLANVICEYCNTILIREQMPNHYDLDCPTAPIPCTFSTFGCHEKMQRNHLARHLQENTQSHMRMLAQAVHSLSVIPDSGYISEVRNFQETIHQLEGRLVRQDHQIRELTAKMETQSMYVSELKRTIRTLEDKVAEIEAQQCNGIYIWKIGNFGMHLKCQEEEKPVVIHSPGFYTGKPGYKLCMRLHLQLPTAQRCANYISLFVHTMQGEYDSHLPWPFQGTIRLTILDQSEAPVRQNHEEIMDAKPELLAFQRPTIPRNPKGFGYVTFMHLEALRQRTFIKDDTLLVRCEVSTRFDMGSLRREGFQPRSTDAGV
Method in brief: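 Ligase activity was read as luminescence from anti-Flag/HRP detection of Flag-ubiquitin bound to casein-blocked Ni-plates alongside His-ubiquitin after a 1 h room-temperature reaction. Buffer: 62.5 mM Tris pH 7.5, 6.25 mM MgCl2, 1.0 mM DTT, 2 μM ATP; E1, Uev1a/Ubc13 and TRAF6 added last to start. IC50s derived across compound concentrations.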

A549 cells = assay: Cell proliferation PAD assay, A549; type: cell-based; conditions: Homo sapiens, 48 hours
Method in brief: (§1)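 Cells plated at 2,000/well; compounds added 24 h later as 6.3-fold dilutions from a 10 mM master stock, diluted 500-fold into wells, in duplicate. After 48 h at 37 °C, 5% CO2, cells were formamide-fixed, DAPI-stained and imaged to count live, apoptotic and dead cells.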

H1299 cells = assay: Cell proliferation PAD assay, H1299; type: cell-based; conditions: Homo sapiens, 48 hours
Method in brief: as §1

[1] = NCI-H1299, 6pt, read-out: H1299 6pt
[2] = NCI-H1299, 3pt, read-out: H1299 3pt

Row | SMILES | IC50 (TRAF6/Uev1A/Ubc13) [µM] | IC50 (A549 cells; 6pt, read-out: A549 6pt) [µM] | IC50 (H1299 cells; [1]) [µM] | IC50 (A549 cells; 3pt, read-out: A549 3pt) [µM] | IC50 (H1299 cells; [2]) [µM]
1 | O=S(=O)(c1ccc(Sc2ccc(O)cc2)c2nonc12)N1CCC(Oc2ncccn2)CC1 [compound 226, 4-[(7-{[4-(pyrimidin-2-yloxy)piperidin-1-yl]sulfonyl}-2,1,3-benzaxadiazol-4-yl)thio]phenol] | 1 to 20 | 1 to 20 | 1 to 20 | – | –
2 | O=S(=O)(Oc1ccc(N2CCN(S(=O)(=O)c3ccc(Cl)c4nonc34)CC2)cc1)c1ccc(Cl)c2nonc12 [compound 171, 4-{4-[(7-chloro-2,1,3-benzoxadiazol-4-yl)sulfonyl]piperazin-1-yl}phenyl 7-chloro-2,1,3-benzoxadiazole-4-sulfonate] | 1 to 20 | ≥ 20 | ≥ 20 | ≥ 20 | 1 to 20
3 | O=S(=O)(c1c(N2CCN(c3ccc(Cl)c(C(F)(F)F)c3)CC2)ccc2nonc12)N1CCN(c2ccc(Cl)c(C(F)(F)F)c2)CC1 [compound 181, 5-{4-[4-chloro-3-(trifluoromethyl)phenyl]piperazin-1-yl}-4-({4-[4-chloro-3-(trifluoromethyl)phenyl]piperazin-1-yl}sulfonyl)-2,1,3-benzoxadiazole] | 1 to 20 | 1 to 20 | ≥ 20 | ≥ 20 | ≥ 20
4 | O=[N+]([O-])c1ccc(Oc2c(Cl)cc(S(=O)(=O)Nc3cccc4nsnc34)cc2Cl)c(Cl)c1 [compound 73, N-2,1,3-benzothiadiazol-4-yl-3,5-dichloro-4-(2-chloro-4-nitrophenoxy)benzenesulfonamide] | 1 to 20 | 1 to 20 | 1 to 20 | ≥ 20 | ≥ 20
5 | N#Cc1ccc(N2CCN(S(=O)(=O)c3c(Cl)ccc4nonc34)CC2)nc1 [compound 209, 6-{4-[(5-chloro-2,1,3-benzoxadiazol-4-yl)sulfonyl]piperazin-1-yl}nicotinonitrile] | 1 to 20 | < 1 | < 1 | 1 to 20 | 1 to 20
6 | N#CC1(c2ccccc2)CCN(c2ccc([N+](=O)[O-])c3nonc23)CC1 [compound 141, 1-(7-nitro-2,1,3-benzoxadiazol-4-yl)-4-phenylpiperidine-4-carbonitrile] | 1 to 20 | – | – | ≥ 20 | ≥ 20
7 | COc1cc(NS(=O)(=O)c2c(Cl)ccc3nonc23)c(OC)cc1Cl [compound 343, 5-chloro-N-(4-chloro-2,5-dimethoxyphenyl)-2,1,3-benzoxadiazole-4-sulfonamide] | ≥ 20 | 1 to 20 | 1 to 20 | – | –
8 | CC(=O)N1CCN(S(=O)(=O)c2c(Sc3cccc4cccnc34)ccc3nonc23)CC1 [compound 214, 8-({4-[(4-acetylpiperazin-1-yl)sulfonyl]-2,1,3-benzoxadiazol-5-yl}thio)quinoline] | 1 to 20 | – | – | 1 to 20 | 1 to 20
9 | Cc1cccc(N2CCN(S(=O)(=O)c3c(Cl)ccc4nonc34)CC2)n1 [compound 202, 5-chloro-4-{[4-(6-methylpyridin-2-yl)piperazin-1-yl]sulfonyl}-2,1,3-benzoxadiazole] | ≥ 20 | < 1 | < 1 | 1 to 20 | 1 to 20
10 | CC1CC(C)CN(S(=O)(=O)c2ccc(Cl)c3nonc23)C1 (centres unmarked) [compound 192, 4-chloro-7-[(3,5-dimethylpiperidin-1-yl)sulfonyl]-2,1,3-benzoxadiazole] | ≥ 20 | ≥ 20 | ≥ 20 | 1 to 20 | 1 to 20
11 | COc1cc(Nc2ccc(S(=O)(=O)Nc3cc(OC)c(Cl)cc3OC)c3nonc23)c(OC)cc1Cl [compound 342, N-(4-chloro-2,5-dimethoxyphenyl)-7-([4-chloro-2,5-dimethoxyphenyl]amino)-2,1,3-benzoxadiazole-4-sulfonamide] | 1 to 20 | 1 to 20 | < 1 | – | –
12 | O=S(=O)(c1c(N2CCC(Oc3ccccc3C(F)(F)F)CC2)ccc2nonc12)N1CCC(Oc2ccccc2C(F)(F)F)CC1 [compound 340, 5-[4-(2-{trifluoromethyl}phenoxy)piperidin-1-yl]-4-{[4-(2-{trifluoromethyl}phenoxy)piperidin-1-yl]sulfonyl}-2,1,3-benzoxadiazole] | ≥ 20 | 1 to 20 | 1 to 20 | – | –
13 | O=c1[nH]c2ccccc2n1C1CCN(S(=O)(=O)c2ccc(Cl)c3nonc23)CC1 [compound 188, 1-{1-[(7-chloro-2,1,3-benzoxadiazol-4-yl)sulfonyl]piperidin-4-yl}-1,3-dihydro-2H-benzimidazol-2-one] | ≥ 20 | ≥ 20 | < 1 | 1 to 20 | 1 to 20
14 | COc1cc(NS(=O)(=O)c2ccc(Cl)c3nonc23)c(OC)cc1Cl [compound 341, 7-chloro-N-(4-chloro-2,5-dimethoxyphenyl)-2,1,3-benzoxadiazole-4-sulfonamide] | ≥ 20 | 1 to 20 | 1 to 20 | – | –

Second part, the molecule after the results:

Row | IC50 (TRAF6/Uev1A/Ubc13) [µM] | IC50 (A549 cells; 6pt, read-out: A549 6pt) [µM] | IC50 (H1299 cells; [1]) [µM] | IC50 (A549 cells; 3pt, read-out: A549 3pt) [µM] | IC50 (H1299 cells; [2]) [µM] | SMILES
15 | 1 to 20 | – | – | ≥ 20 | ≥ 20 | Cc1ccc(N2CCN(c3ccc([N+](=O)[O-])c4nonc34)CC2)cc1C [compound 140, 4-[4-(3,4-dimethylphenyl)piperazin-1-yl]-7-nitro-2,1,3-benzoxadiazole]
16 | 1 to 20 | – | – | ≥ 20 | ≥ 20 | N#Cc1ccc(N2CCN(c3ccc([N+](=O)[O-])c4nonc34)CC2)nc1 [compound 121, 6-[4-(7-nitro-2,1,3-benzoxadiazol-4-yl)piperazin-1-yl]nicotinonitrile]
17 | ≥ 20 | ≥ 20 | < 1 | 1 to 20 | 1 to 20 | Cc1cc(C)cc(-c2ccc([N+](=O)[O-])c3nonc23)c1 [compound 286, 4-(3,5-Dimethylphenyl)-7-nitro-2,1,3-benzoxadiazole]
18 | 1 to 20 | < 1 | < 1 | – | – | O=[N+]([O-])c1ccc(Sc2cccc3cccnc23)c2nonc12 [compound 5, 8-[(7-Nitro-2,1,3-benzoxadiazol-4-yl)thio]quinoline]
19 | ≥ 20 | ≥ 20 | < 1 | 1 to 20 | 1 to 20 | COC(=O)c1ccc(NS(=O)(=O)c2c(Cl)ccc3nonc23)cc1 [compound 178, methyl 4-{[(5-chloro-2,1,3-benzoxadiazol-4-yl)sulfonyl]amino}benzoate]
20 | 1 to 20 | 1 to 20 | < 1 | 1 to 20 | 1 to 20 | O=S(=O)(c1c(Cl)ccc2nonc12)N1CCN(c2ncc(C(F)(F)F)cc2Cl)CC1 [compound 179, 5-chloro-4-({4-[3-chloro-5-(trifluoromethyl)pyridin-2-yl]piperazin-1-yl}sulfonyl)-2,1,3-benzoxadiazole]
21 | ≥ 20 | < 1 | < 1 | – | – | Cc1cccc(-c2ccc([N+](=O)[O-])c3nonc23)c1 [compound 310, 4-(3-Methylphenyl)-7-nitro-2,1,3-benzoxadiazole]
22 | 1 to 20 | – | – | ≥ 20 | ≥ 20 | O=[N+]([O-])c1ccc(N2CCN(c3ncccc3C(F)(F)F)CC2)c2nonc12 [compound 148, 4-nitro-7-{4-[3-(trifluoromethyl)pyridin-2-yl]piperazin-1-yl}-2,1,3-benzoxadiazole]
23 | 1 to 20 | 1 to 20 | 1 to 20 | ≥ 20 | ≥ 20 | O=[N+]([O-])c1ccc(N2CCN(c3cc(C(F)(F)F)ccn3)CC2)c2nonc12 [compound 90, 4-nitro-7-{4-[4-(trifluoromethyl)pyridin-2-yl]piperazin-1-yl}-2,1,3-benzoxadiazole]
24 | ≥ 20 | ≥ 20 | ≥ 20 | – | – | O=S(=O)(Nc1ccc2cn[nH]c2c1)c1c(O)ccc2nonc12 [compound 339, 5-hydroxy-N-(1H-indazol-6-yl)2,1,3-benzoxadiazole-4-sulfonamide]
25 | ≥ 20 | ≥ 20 | – | ≥ 20 | ≥ 20 | Cc1cc(C)cc(-c2cccc3nonc23)c1 [compound 285, 4-(3,5-Dimethylphenyl)-2,1,3-benzoxadiazole]
26 | 1 to 20 | – | – | ≥ 20 | ≥ 20 | O=[N+]([O-])c1ccc(N2CCN(c3ncccn3)CC2)c2nonc12 [compound 109, 4-nitro-7-(1,3-(pyrimidin-2-yl)piperazin-1-yl)-2,1,3-benzoxadiazole]
27 | 1 to 20 | 1 to 20 | 1 to 20 | – | – | O=[N+]([O-])c1ccc(-c2cccc(C(F)(F)F)c2)c2nonc12 [compound 309, 4-Nitro-7-[3-(trifluoromethyl)phenyl]-2,1,3-benzoxadiazole]
